# Laboratory results as given in article PMC4422685, “A New APEH Cluster with Antioxidant Functions in the Antarctic Hemoglobinless Icefish Chionodraco hamatus” (PLoS ONE, 2015).
# How the values were obtained:
# [1] = molecular target: T1, APEH-1Dl (Dicentrarchus labrax, UniProt A0A8C4H3D3); test: exopeptidase (aminopeptidase) assay, pNA release; type: biochemical; conditions: 15 °C
# T1 construct: native, purified from red blood cells; 80 kDa monomer, about 300 kDa homotetramer; N-terminus 1AAESQPATEE; deposited cDNA covers only 208 aa of the C-terminal part
# Excerpt: exopeptidase (aminopeptidase) assay, pNA release on APEH-1Dl
# [2] = molecular target: T1, APEH-1Dl; test: exopeptidase assay, fluorogenic AMC release; type: biochemical; conditions: 15 °C
# Excerpt: exopeptidase assay, fluorogenic AMC release on APEH-1Dl
# T1 sequence (A0A8C4H3D3 entry or part of it): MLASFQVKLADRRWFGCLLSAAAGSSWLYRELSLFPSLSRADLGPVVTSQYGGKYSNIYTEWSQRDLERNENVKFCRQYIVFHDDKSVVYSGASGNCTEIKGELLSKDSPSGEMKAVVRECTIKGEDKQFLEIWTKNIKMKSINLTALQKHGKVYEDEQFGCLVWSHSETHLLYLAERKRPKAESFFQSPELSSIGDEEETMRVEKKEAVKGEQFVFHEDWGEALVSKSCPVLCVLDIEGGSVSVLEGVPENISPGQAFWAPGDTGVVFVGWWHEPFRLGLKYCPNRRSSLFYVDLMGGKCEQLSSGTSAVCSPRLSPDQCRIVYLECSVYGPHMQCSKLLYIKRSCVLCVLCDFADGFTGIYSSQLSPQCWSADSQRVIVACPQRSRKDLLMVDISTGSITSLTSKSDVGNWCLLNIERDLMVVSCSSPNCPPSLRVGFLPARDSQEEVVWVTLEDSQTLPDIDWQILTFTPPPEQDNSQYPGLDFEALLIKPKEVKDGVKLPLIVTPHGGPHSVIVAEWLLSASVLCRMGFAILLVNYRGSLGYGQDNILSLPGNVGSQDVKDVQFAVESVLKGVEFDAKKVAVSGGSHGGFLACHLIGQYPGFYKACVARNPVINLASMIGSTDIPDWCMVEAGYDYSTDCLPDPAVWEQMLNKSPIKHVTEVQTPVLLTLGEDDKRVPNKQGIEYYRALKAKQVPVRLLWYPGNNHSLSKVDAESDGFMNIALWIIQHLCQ
SMILES,Km [1],Km [2]
CC(=O)N[C@@H](C)C(=O)Nc1ccc([N+](=O)[O-])cc1 [Ac-Ala-pNA],28 µM,–
CSCC[C@H](NC(C)=O)C(=O)Nc1ccc2c(C)cc(=O)oc2c1 [Ac-Met-AMC],–,52 µM
